According to patent publication US20180200233A1, “COMPOSITIONS FOR PREVENTING CANCERS ASSOCIATED WITH HUMAN PAPILLOMA VIRUSES” (Loma Linda University, priority 2015, published 2018):

What was measured:
[1] = tested on: p53 level in C33A cells; assay: p53 ELISA in C33A cells; type: cell-based, human; details: 200 μM myricetin, 100 μM spinacine; with mitomycin C, 24 h
Protocol: FIGS. 6A-B is an immunoblot and FIG. 6B is a graph showing that treatment with myricetin and spinacine (5) increased cellular levels of caspase 8 and p53. (FIG. 6A) SiHa cells (1×10^6 per well) were seeded into a 6-well plate and allowed to incubate overnight. The indicated concentrations of myricetin and spinacine were added, then cells were incubated for 24 h. Cells were then washed in 1×PBS, then harvested and the resulting level of caspase 8 was measured by immunoblot. (FIG. 6B) SiHa and C33A cells (1×10^6 per well) were seeded into a 6-well plate and allowed to incubate overnight. 200 μM of myricetin and 100 μM spinacine were added together with 4 μg/ml mitomycin C and incubated for 24 h. The resulting level of p53 was measured by ELISA, and the level of p53 found in untreated cells was set at 100%. Experiments were performed in triplicate, and error bars indicate the standard deviation.
If this ability is due to inhibition of E6 functions, then an increase in the levels of caspase 8 and p53 should be observable in SiHa cells following treatment with myricetin and spinacine. To test this prediction, SiHa cells were treated with 50, 100, and 200 μM of myricetin or spinacine for 24 hr, and then measured the level of caspase 8 by immunoblot. […] To ask how p53 levels were affected, an ELISA assay was employed. […]

[2] = tested on: UPCI-SCC90-UP-Clone 35 (#90) cells; assay: MTT cell viability, HPV+ HNSCC cell line #90 with TRAIL; type: cell-based; details: HPV+ #90 cells, 50 ng/ml TRAIL
Protocol: FIGS. 7A-E are graphs showing myricetin and spinacine (5) re-sensitized HPV^+, but not HPV^−, head and neck cancer cell lines to treatment with TRAIL. (FIG. 7A) Both HPV^− and HPV^+ HN cancer cell lines display resistance to TRAIL treatment. HPV^− (#84) (Myricetin—FIG. 7B; Spinacine—FIG. 7C) and HPV^+ (#90) (FIG. 7D; Spinacine—FIG. 7E) head and neck cancer cell lines (2×10^4 cells per well) were seeded into 96-well plates and allowed to incubate overnight, then cells were pre-treated with myricetin (0-200 μM) or spinacine (0-100 μM) for 4 h. […] of TRAIL, along with cycloheximide (5 μg/ml) was added and cells were allowed to incubate overnight. Cell viability was measured by the MTT assay, and the viability of cells untreated with small molecules was set at 100%. Experiments were performed in triplicate, and error bars indicate the standard deviation.
As shown above, myricetin and spinacine sensitize SiHa cells to TRAIL and chemotherapy drugs. […] Other types of HPV^+ cancer cells were examined, and in particular, head and neck squamous cell carcinoma (HNSCC) cells can also be sensitized in this manner. […] For the combination experiments, 50 ng/ml TRAIL was applied in combination with either myricetin (0-200 μM) or spinacine (0-100 μM). […] In contrast […], TRAIL-induced cell death was enhanced 30% in UPCI-SCC90-UP-Clone 35, #90. Furthermore, 40 μM spinacine was able to enhance TRAIL-induced cell death in the HPV^+ #90 cell lines up to 50%.
The extracellular domain of human TRAIL was cloned into a pTriEx expression plasmid containing N-terminal Hisx6 tag. His-TRAIL was expressed in the E. coli BL-21 pLys strain and purified as previously described. Doxorubicin and cisplatin were purchased from Sigma. His-TRAIL, doxorubicin, and cisplatin were diluted in PBS to the desired concentration before using. […] All experiments were repeated at least three times (three biological replicates, carried out on different days), with each experimental group measured in triplicate within each of these individual experiments. […]

Row | SMILES | change in p53 levels in C33A cells (in words) [1] | enhancement of TRAIL-induced cell death ([2]; myricetin 0-200 μM) [%] | enhancement of TRAIL-induced cell death ([2]; 40 μM spinacine)
1 | O=c1c(O)c(-c2cc(O)c(O)c(O)c2)oc2cc(O)cc(O)c12 [Myricetin, reference compound] | no significant change | 30 | 
2 | O=C(O)C1Cc2[nH]cnc2CN1 (stereo not shown) [Compound 5, 4,5,6,7-Tetrahydro-1H-imidazo(4,5-c)pyridine-6-carboxylic acid] | no significant change |  | up to 50%
